Our source for the IC50 values is PubChem BioAssay AID1117265 (The Scripps Research Institute Molecular Screening Center, 2014).

This test deals with Trace amine-associated receptor 1 (Homo sapiens) (UniProt Q96RJ0). In words: blockers of trace amine receptor TAAR1 – cell-based, fluorescence, MedChem round 2, late-stage follow-up (AID 1117265). Particulars: TAAR1-expressing cells, antagonist mode.

Activity calls are given as the source filed them. The rule behind the calls is not given here.

Sequence of Trace amine-associated receptor 1 (Homo sapiens) (Q96RJ0 whole entry, looked up, the tested form may be a part): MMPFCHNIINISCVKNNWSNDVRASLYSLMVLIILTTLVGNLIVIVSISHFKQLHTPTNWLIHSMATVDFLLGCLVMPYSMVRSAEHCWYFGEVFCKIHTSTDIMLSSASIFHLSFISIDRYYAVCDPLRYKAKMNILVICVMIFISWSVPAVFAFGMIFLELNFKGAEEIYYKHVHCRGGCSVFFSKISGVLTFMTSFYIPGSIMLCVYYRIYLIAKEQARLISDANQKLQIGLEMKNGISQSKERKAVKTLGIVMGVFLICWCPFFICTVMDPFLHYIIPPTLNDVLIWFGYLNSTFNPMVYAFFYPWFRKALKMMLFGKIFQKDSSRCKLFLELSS

A word on the IC50: it is the concentration that inhibits the measured activity by half. `N#Cc1c(C(F)(F)F)cc(-c2ccc(Cl)cc2)nc1SCC(=O)Nc1ncccn1`: the half-inhibitory concentration (IC50) was 3.74 nM.

In the case of `Cc1ccc(C(=O)CCN2CCC(c3ccccc3)C2)cc1` (configuration not stated), the half-inhibitory concentration (IC50) is 672 nM.

For `CC(CN1CCCC1Cc1ccccc1)C(=O)c1ccc2c(c1)OCCO2` (configuration not stated), the concentration for half-maximal inhibition (IC50) is 2960 nM.

As to `N#Cc1c(C(F)(F)F)cc(-c2ccc(Cl)cc2)nc1SCC(=O)N1CCCCCC1`, the IC50 was > 29900 nM (inactive).

With `O=C(CCN1CCC(c2ccccc2)C1)c1ccccc1` (configuration not stated), the 50% inhibitory concentration (IC50) was 765 nM.

As to `COc1cc(C(=O)CCN2CCC(c3ccccc3)C2)cc(OC)c1OC` (configuration not stated), the IC50 was 419 nM.

Take `N#Cc1c(C(F)(F)F)cc(-c2ccc(Cl)cc2)nc1SCC(=O)N1CCCC1`: the IC50 is 1070 nM.
